Test results taken from patent publication US6686181B1, “Method for the production of L-amino acids from their racemic N-aceytyl-D, L-derivatives by enzymatic racemate cleavage by means of isolated recombinant enzymes” (Aventis Corporation GmbH, priority 1999, dated 2004).

tested on: deac1 protein; experiment: Substrate specificity and stereoselectivity of the purified deac1 enzyme (free amino acid formed, amino acid analyzer); assay type: biochemical, Stenotrophomonas sp.; details: 5 μg purified enzyme, 25 mM substrate, pH 7.5, 37° C., 1 h; specific activity with hippuric acid set equal to 100%
Experimental: For the investigation of substrate specificity and stereospecificity of the deac1 protein, 5 μg each of purified enzyme were incubated in 20 μl batches in 10 mM NaCl, 10 mM Na phosphate, pH=7.5 with 25 mM each of the N-acetyl-L-amino acids or of the corresponding D enantiomers mentioned in Table 1. For comparison, hippuric acid (N-benzoylglycine), the natural substrate of deacetylase, was employed. […] Table 1 indicates the relative deacetylase activities for the L-enantiomers of the various substrates.

| Rel. activity | Compound |
| --- | --- |
| 0% | CSCC[C@H](NC(C)=O)C(=O)O [N-Ac-L-methionine] |
| 24% | CC(=O)N[C@@H](Cc1ccccc1)C(=O)O [N-Ac-L-phenylalanine] |
| 4% | CC(=O)N[C@@H](CO)C(=O)O [N-Ac-L-serine] |
| 0.4% | CC(=O)N[C@@H](Cc1c[nH]c2ccccc12)C(=O)O [N-Ac-L-tryptophan] |
| 0% | CC(=O)N1CCC[C@H]1C(=O)O [N-Ac-L-proline] |

same assay, conditions: 25 mM substrate, 37° C., 1 h

| cleavage of substrate by the deac1 enzyme (in words) | Compound |
| --- | --- |
| cleaves | O=C(O)CNC(=O)c1ccccc1 [Hippuric acid (N-benzoylglycine), N-benzoylglycine, reference compound] |
| cleaves | CC(=O)N[C@@H](CCCN)C(=O)O [N-Ac-L-ornithine] |
| cleaves | CC(=O)N[C@@H](CCC(=O)O)C(=O)O [N-Ac-L-glutamic acid] |
| cleaves | CC(=O)NCC(=O)O [N-Ac-glycine] |
| cleaves | CC(=O)N[C@@H](Cc1ccccc1)C(=O)O [N-Ac-L-phenylalanine] |
| cleaves | CC(=O)N[C@@H](CCC(N)=O)C(=O)O [N-Ac-L-glutamine] |
| cleaves | CC(=O)N[C@@H](CC(C)C)C(=O)O [N-Ac-L-leucine] |
| cleaves | CC(=O)N[C@@H](Cc1c[nH]cn1)C(=O)O [N-Ac-L-histidine] |

| Compound | cleavage of substrate by the deac1 enzyme (in words) |
| --- | --- |
| CC(=O)N[C@@H](CCP(C)(=O)O)C(=O)O [N-Ac-L-phosphinothricin] | cleaves |
